From ChEMBL document CHEMBL1154198, “Chemical genetics of Plasmodium falciparum” (Nature, 2010)

Tests used:
[1] = tested on: Plasmodium falciparum; assay: ST_JUDE: Plasmodium falciparum K1 EC50 (uM) as measured by SYBR green dye; assay type: functional, organism-based
[2] = tested on: Plasmodium falciparum; assay: ST_JUDE: Plasmodium falciparum 3D7 EC50 (uM) as measured by SYBR green dye; assay type: functional, organism-based

Structure (SMILES)	EC50 [1]	EC50 [2]
CCCOc1cc(O)c(-c2[nH]nc(C)c2Oc2ccccc2)cc1CC	2.1 µM	3.83 µM
CCCCn1c(C)c(C(=O)OCC)c2cc(OC(C)=O)c(Br)cc21	> 15 µM	2.76 µM
O=C(Nc1cccc(C(F)(F)F)c1)Nc1ccc(Cl)c(Cl)c1	0.738 µM	> 15 µM
CCCC(=O)NC(c1ccc(C)cc1)c1ccc2cccnc2c1O (centres undefined)	> 15 µM	4.21 µM
Cc1cc(N2CCC(N(C)C3CCCC3)CC2)nc2cc(O)ccc12	> 15 µM	1.54 µM
CCCN1CCN(CCCNC(=O)c2ccc3c(c2)sc2nc(-c4ccc(OC)cc4)cn23)CC1	> 15 µM	0.839 µM
Fc1ccccc1Nc1nc(NCc2ccccc2)c2ccccc2n1	9.11 µM	3.46 µM
Oc1c(C(Nc2ccccn2)c2ccc(Br)cc2)ccc2cccnc12 (centres undefined)	2.84 µM	1.22 µM
CCOc1ccc(-c2nonc2NC(=O)c2ccccc2Cl)cc1OCC	0.538 µM	0.49 µM
CN(C)CCNCCCOc1ccc(Cl)cc1Cc1ccccc1	> 15 µM	5.82 µM
CCCOc1ccc(CSC2=NCCN2)cc1[N+](=O)[O-]	6.96 µM	6.86 µM
Cc1nnc(NCCN2CCOCC2)nc1O	> 15 µM	> 15 µM
CCc1cc(-c2[nH]ncc2-c2ccc(F)cc2)c(O)cc1OC	> 15 µM	> 15 µM
CCc1cccc2c(C#N)cn(CCOc3ccccc3F)c12	0.973 µM	1.26 µM
OCCN1CCN(c2nc(Nc3ccc(F)cc3)c3cnn(-c4ccccc4)c3n2)CC1	1.38 µM	1.21 µM
CC(C)(C)c1cc(C(=O)Cn2c(NCCO)nc3ccccc32)cc(C(C)(C)C)c1O	> 15 µM	> 15 µM
COc1ccc(Cn2c(SCc3cccc(F)c3)nc3nccnc3c2=O)cc1	> 15 µM	> 15 µM
O=C1C(Nc2cccc(F)c2)=C(N2CCCCC2)C(=O)c2ccccc21	0.471 µM	0.261 µM
O=C(CCNc1ccc(Oc2ccccc2)cc1)c1ccco1	> 15 µM	> 15 µM
CCCCn1nnnc1NCc1cc(Cl)c(OC)c(OC)c1	> 15 µM	5.86 µM
CO/C(O)=C1\C(C)=NC2=C(C(=O)CC(c3ccccc3Cl)C2)C1c1ccc(OC)c(OC)c1 (centres undefined)	9.39 µM	> 15 µM
CCC(=O)NC(c1ccc(Cl)cc1)c1ccc2cccnc2c1O (centres undefined)	1.81 µM	2.05 µM

Structure (SMILES)	EC50 [1]	EC50 [2]
Cc1ccnc(NC(c2ccc([N+](=O)[O-])cc2)c2ccc3cccnc3c2O)c1 (centres undefined)	3.7 µM	1.81 µM
CCCCN1COc2c(c3c(C(C)=O)c(C)oc3c3ccccc23)C1	4.31 µM	> 15 µM
O=C(Cc1ccccc1)NC(c1ccc([N+](=O)[O-])cc1)c1c(O)ccc2ccccc12 (centres undefined)	5.77 µM	6.31 µM
COC(=O)C1=C(C(=O)OC)C2(OC1c1cccc(F)c1)C(=O)c1ccccc1C2=O (centres undefined)	> 15 µM	3.97 µM
Cc1cc(Cl)c(S(=O)(=O)N(C)C)cc1OCC(=O)Nc1ccccc1	> 15 µM	> 15 µM
C=CCOC(=O)C1=C(C)N=C(C)/C(=C(\O)OCC=C)C1c1ccc(OC)c(OC)c1 (centres undefined)	5.93 µM	4.4 µM
CCc1c2cccn2cc[n+]1C	6.08 µM	7.07 µM
Cc1ccsc1CN(C(=O)COc1ccc(C(C)C)cc1)C1CCS(=O)(=O)C1 (centres undefined)	> 15 µM	> 15 µM
O=C(C1CCCO1)N1N=C(c2c(O)nc3ccc(Cl)cc3c2-c2ccccc2)CC1c1ccco1 (centres undefined)	> 15 µM	> 15 µM
Cc1cc(N(C)C)nc(Nc2ccc(NS(=O)(=O)c3cccc(Cl)c3)cc2)n1	> 15 µM	7.69 µM
CCN(CC)CCN1C(=O)c2oc3ccccc3c(=O)c2C1c1cccc(Cl)c1 (centres undefined)	1.08 µM	0.984 µM
COc1cccc(CNC(=O)C2c3ccccc3C(=O)N(CC(C)C)C2c2cccs2)c1 (centres undefined)	4.13 µM	5.27 µM
CCOc1ccc(/C=c2\sc3n(c2=O)CN(c2cccc(F)c2)CN=3)cc1	> 15 µM	> 15 µM
CC(C)(C)CC(C)(C)NCC(O)COc1ccc2c(c1)CCC2 (centres undefined)	1.22 µM	4.42 µM
COc1ccc(N2C(=O)/C(=C/Nc3ccccc3OC)c3ccccc3C2=O)cc1	> 15 µM	> 15 µM
O=C(Nc1ccc(Cl)cc1)C1c2ccccc2C(=O)N(C2CCCC2)C1c1cccs1 (centres undefined)	1.07 µM	0.556 µM
CCN(CC)CC/N=c1\cc(-c2ccc(OC)c(OC)c2)oc2ccc(Cl)cc12.[O-][Cl+3]([O-])([O-])O	5.14 µM	0.543 µM
Cc1n[nH]c(-c2ccc(OC(C)C)cc2O)c1Oc1ccccc1	2.91 µM	5.66 µM
CCN(CC)C(=O)c1ccc2c(c1)N(Cc1ccccc1)C(=O)c1ccccc1S2(=O)=O	> 15 µM	> 15 µM
CCC1CCCCN1CCCNC(=S)Nc1ccc2nc(N3CCN(CC)CC3)cc(C)c2c1 (centres undefined)	9.17 µM	4.39 µM
CCCCNc1ccc2cccc(O)c2n1	4.37 µM	> 15 µM
Cc1ccccc1C(=O)N(Cc1cccnc1)c1nc2c(F)cccc2s1	> 15 µM	4.67 µM

Structure (SMILES)	EC50 [1]	EC50 [2]
O=C(CC1N=C2c3ccccc3N=C(SCc3ccc(F)cc3)N2C1=O)NCc1ccco1 (centres undefined)	5.69 µM	8.19 µM
CNc1c([N+](=O)[O-])nn(-c2ccc(Cl)cc2)[n+]1[O-]	3.76 µM	> 15 µM
CN(C)c1ccc(/C=C/c2cc(/C=C/c3ccc(N(C)C)cc3)n3n[n+](C)nc3n2)cc1.[O-][Cl+3]([O-])([O-])[O-]	0.514 µM	0.641 µM
CCOC(=O)C1=C(C)N=c2s/c(=C\c3cc(OC)ccc3O)c(=O)n2C1c1ccccc1 (centres undefined)	> 15 µM	> 15 µM
CCC[N+]1(C)CCC2C(C1)c1ccccc1N2Cc1ccccc1 (centres undefined)	> 15 µM	4.25 µM
CCc1cccc2c(C#N)cn(CCOc3ccccc3Cl)c12	0.577 µM	0.516 µM
CCCc1cc(O)nc(-n2nc(C)cc2NC(=O)c2cc(Cl)ccc2Cl)n1	> 15 µM	> 15 µM
C=CCc1cccc(/C=N/NC(=O)c2cccs2)c1O	6.81 µM	> 15 µM
Cc1ccc(Nc2c(-c3ccccn3)nc3ccc(C)cn23)cc1	> 15 µM	3.93 µM
Cc1ccc(S(=O)(=O)NCC(c2cccnc2)N2CCN(c3ccccc3F)CC2)cc1 (centres undefined)	> 15 µM	> 15 µM
CCCOCc1cc(CN2CCN(c3cccc(Cl)c3)CC2)c(O)c2ncccc12	0.896 µM	1.1 µM
Oc1ccc(C(=C(Cl)Cl)c2ccc(O)cc2)cc1	0.927 µM	2.47 µM
Cc1cc(C)c2nc(NC(=O)CSc3ccc(F)cc3)sc2c1	> 15 µM	> 15 µM
CC(=O)NC(c1ccccc1Cl)c1ccc2cccnc2c1O (centres undefined)	3.79 µM	3.39 µM
O=C(c1cccc(F)c1)N(Cc1cccnc1)c1nc2ccc(F)cc2s1	4.23 µM	> 15 µM
CCCCCCCCc1c(C)c(C#N)c2nc3ccccc3n2c1-n1cnc2ccccc21	> 15 µM	> 15 µM
O=C(Nc1ccc(Cl)c(Cl)c1)c1ccc(-c2ccccc2)cc1	> 15 µM	> 15 µM
CN1/C(=C/c2cccc[n+]2CCO)Sc2ccccc21	1.2 µM	1.79 µM
C[n+]1ccc(C=Cc2ccc(O)cc2)cc1	4.01 µM	3.97 µM
CCc1nc2sc(C(c3cccc(F)c3)N3CCN(c4ccc(OC)cc4)CC3)c(O)n2n1 (centres undefined)	> 15 µM	> 15 µM
CC(=O)N(C1=C(N2CCOCC2)C(=O)c2ccccc2C1=O)c1ccc(F)cc1	0.548 µM	0.51 µM
CCOc1cc(C2C3=C(O)CC(c4ccc(Cl)cc4)CC3=NC(C)=C2C(=O)OC(C)C)ccc1O (centres undefined)	1.62 µM	1.54 µM

Structure (SMILES)	EC50 [1]	EC50 [2]
CCCCC(=O)NC(c1ccc(N(CC)CC)cc1)c1ccc2cccnc2c1O (centres undefined)	3.01 µM	1.65 µM
CC(=O)Nc1ccc(S(=O)(=O)N2CCN(c3ccc(Nc4ccccc4)nn3)CC2)cc1	> 15 µM	7.32 µM
CCN(CC)CCOC(=O)c1ccc(NC(=O)c2cc3cc4cc(OC)ccc4nc3s2)cc1	3.31 µM	1.7 µM
CCN(CC)c1ccc(C2NC(=O)NC(O)(C(F)(F)F)C2C(=O)c2cccnc2)cc1 (centres undefined)	8.42 µM	9.06 µM
CC(=O)C1=C(c2ccc(Br)cc2)N(C(C)=O)n2cnnc2S1	1.56 µM	> 15 µM
CCN(CC)CCNC(=O)CCc1nnc2n(Cc3ccc(Cl)cc3)c(=O)c3ccccc3n12	> 15 µM	> 15 µM
CCOCCn1/c(=N/C(=O)COc2ccc(Cl)cc2)sc2cc(OCC)ccc21	> 15 µM	> 15 µM
CCOC(=O)C1=C(C)N=c2s/c(=C\c3ccc(O)cc3)c(=O)n2C1c1ccc(OC)c(OCC)c1 (centres undefined)	> 15 µM	0.77 µM
COc1ccc(CNCCc2ccc(F)cc2)cc1C	> 15 µM	> 15 µM
COc1cc(OC)cc(-c2nnc(NC(=O)c3cccc(S(C)(=O)=O)c3)o2)c1	> 15 µM	> 15 µM
CCC1=Nc2cc(C(=O)NCc3ccco3)ccc2Sc2ccc(Cl)cc21	6.27 µM	3.74 µM
CCCN(CCC)CCCNC(=O)c1cc2c(-c3ccc(OC)c(OC)c3)nn(C)c2s1	> 15 µM	4.04 µM
CN1CCN(Cc2c(O)ccc3c(=O)c(Oc4ccccc4Cl)c(C(F)(F)F)oc23)CC1	0.71 µM	1.72 µM
O=C(Nc1ccccc1-c1ccccc1)C(Cl)(Cl)Cl	1.15 µM	1.56 µM
CCC(C)c1ccc(NC(=O)c2cc(Br)ccc2OC)c(O)c1 (centres undefined)	2.11 µM	6.05 µM
CCC(=O)C1=C(c2ccc(F)cc2)N(C(=O)CC)n2cnnc2S1	> 15 µM	> 15 µM
COc1ccc(-n2c(C)cc(/C=c3\sc4nc5ccccc5n4c3=O)c2C)cc1	> 15 µM	> 15 µM
CCN1C(=O)c2ccccc2Sc2ccc(NC(=O)NCc3ccccc3Cl)cc21	> 15 µM	> 15 µM
CC(=O)NC1=NN(C(C)=O)C(C)(c2cccc(NC(C)=O)c2)S1 (centres undefined)	4.14 µM	3.57 µM
Cc1cccc(-n2ccnc2SCC(=O)Nc2cccc(F)c2)c1C	7.99 µM	> 15 µM
CN(C)c1ccc(-c2n(C)c3ccccc3[n+]2C)cc1	4.36 µM	> 15 µM
